Data taken from ChEMBL document CHEMBL6074660, “Recent advances in peptoids as promising antimicrobial agents to target diverse microbial species” (Eur J Med Chem, 2024).
Numbered stars: 1 amine (or outer) side, 2 acyl side, 3 side chain; on linkers, the order of the positions; unused ones are H or OH. Square brackets hold non-standard residues; d marks the D form. Peptide text beside a SMILES is read from it. dAla(N-(6-guanidinohexyl)) = C[C@@H](NCCCCCCNC(=N)N)C(=O)O; X1 = C[C@@H](C(=O)[*:2])N(CCCCCCN)[*:1]; X2 = C[C@H](C(=O)[*:2])N(CCCCCCN)[*:1]; 2Nal = N[C@@H](Cc1ccc2ccccc2c1)C(=O)O; X5 = C[C@H](C(=O)[*:2])N(CCCCCN)[*:1]; Gly(N-2-aminoethyl) = NCCNCC(=O)O; Nspe = C[C@H](NCC(=O)O)c1ccccc1

Legend:
Plasmodium falciparum = assay: Antiplasmodial activity against Plasmodium falciparum 3D7 assessed as inhibition of parasite growth; type: functional, organism-based
[1] = biological target: C-X-C chemokine receptor type 4 (Homo sapiens, UniProt P61073); assay: Inhibition of CXCR4 receptor (unknown origin)
[2] = test system: Human immunodeficiency virus 1; assay: Antiviral activity against HIV-1; type: functional, organism-based
Leishmania mexicana [3] = assay: Antileishmanial activity against Leishmania mexicana promastigotes; type: functional; settings: read-out: ED50 (the source's name)
Leishmania mexicana [4] = assay: Antileishmanial activity against Leishmania mexicana amastigotes; type: functional; settings: read-out: ED50 (the source's name)
Leishmania amazonensis [5] = assay: Antileishmanial activity against Leishmania amazonensis promastigotes assessed as inhibition of parasite growth at 10 uM incubated for 24 hrs relative to control; type: functional; design: scale not given: the % may be the effect or the level left
Leishmania amazonensis [6] = assay: Antileishmanial activity against Leishmania amazonensis promastigotes assessed as inhibition of parasite growth at 10 uM incubated for 48 hrs relative to control; type: functional; design: scale not given: the % may be the effect or the level left

Sequence of C-X-C chemokine receptor type 4 (P61073 whole entry): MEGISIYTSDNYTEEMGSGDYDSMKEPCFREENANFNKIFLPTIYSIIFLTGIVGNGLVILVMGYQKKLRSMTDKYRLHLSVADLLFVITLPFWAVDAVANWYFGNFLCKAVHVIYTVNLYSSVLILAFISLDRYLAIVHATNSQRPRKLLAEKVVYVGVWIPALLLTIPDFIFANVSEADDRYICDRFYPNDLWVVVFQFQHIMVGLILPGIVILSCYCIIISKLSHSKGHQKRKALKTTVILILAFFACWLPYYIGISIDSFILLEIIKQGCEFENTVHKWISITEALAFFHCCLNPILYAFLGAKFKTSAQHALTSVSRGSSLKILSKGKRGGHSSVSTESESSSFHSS

SMILES	IC50 (Plasmodium falciparum)	other results
Cc1cc(C)cc(C(=O)N(CC(=O)NC2CCCCC2)c2ccc(C(=O)NO)cc2)c1	77700 nM	–
CNC(=O)CN(Cc1ccc(C(=O)NO)cc1)C(=O)c1cc(C)cc(C)c1	50 nM	–
CNC(=O)CN(Cc1ccc(C(=O)NO)cc1)C(=O)c1ccccc1C	70 nM	–
C[C@@H]1C(=O)N[C@@H](CCCNC(=N)N)C(=O)N[C@@H](Cc2ccc3ccccc3c2)C(=O)NCC(=O)N[C@H](Cc2ccc(O)cc2)C(=O)N1CCCCCN (cyclo([2Nal]G[dY][X5]R))	–	IC50 [1]: 1600 nM
Cc1cccc(CNC(=O)CN(Cc2ccc(C(=O)NO)cc2)C(=O)c2cc(C)cc(C)c2)c1	120 nM	–
Cc1cc(C)cc(C(=O)N(CC(=O)NCc2cccnc2)Cc2ccc(C(=O)NO)cc2)c1	70 nM	–
C[C@H]1C(=O)N[C@@H](CCCNC(=N)N)C(=O)N[C@@H](Cc2ccc3ccccc3c2)C(=O)NCC(=O)N[C@H](Cc2ccc(O)cc2)C(=O)N1CCCCCCN (cyclo([2Nal]G[dY][X1]R))	–	IC50 [1]: 94000 nM; EC50 [2]: 979000 nM
Cc1cc(C)cc(C(=O)N(CC(=O)NCc2ccc(F)cc2)Cc2ccc(C(=O)NO)cc2)c1	80 nM	–
CN(C)c1ccc(C(=O)N(CC(=O)NCc2ccccc2)Cc2ccc(C(=O)NO)cc2)cc1	9 nM	–
COc1ccccc1C(=O)N(CC(=O)NC(C)(C)C)Cc1ccc(C(=O)NO)cc1	250 nM	–
Cc1ccc(CNC(=O)CN(Cc2ccc(C(=O)NO)cc2)C(=O)c2cc(C)cc(C)c2)cc1	42 nM	–
CC(C)c1ccc(C(=O)N(CC(=O)NCc2ccccc2)Cc2ccc(C(=O)NO)cc2)cc1	5 nM	–
Cc1cc(C)cc(C(=O)N(CC(=O)NCc2ccc(C(C)(C)C)cc2)Cc2ccc(C(=O)NO)cc2)c1	110 nM	–
CC(C)(C)c1ccc(C(=O)N(CC(=O)NCc2ccccc2)Cc2ccc(C(=O)NO)cc2)cc1	8 nM	–
COc1ccc(CNC(=O)CN(Cc2ccc(C(=O)NO)cc2)C(=O)c2cc(C)cc(C)c2)cc1	33 nM	–
C[C@@H](c1ccccc1)N(CC(N)=O)C(=O)CN(C(=O)CN(CCN)C(=O)CN(C(=O)CN(C(=O)CN(CCN)C(=O)CN(C(=O)CN(C(=O)CN(CCN)C(=O)CN(C(=O)CN(C(=O)CNCCN)[C@@H](C)c1ccccc1)[C@@H](C)c1ccccc1)[C@@H](C)c1ccccc1)[C@@H](C)c1ccccc1)[C@@H](C)c1ccccc1)[C@@H](C)c1ccccc1)[C@@H](C)c1ccccc1 (H-[Gly(N-2-aminoethyl)][Nspe][Nspe][Gly(N-2-aminoethyl)][Nspe][Nspe][Gly(N-2-aminoethyl)][Nspe][Nspe][Gly(N-2-aminoethyl)][Nspe][Nspe]-NH2)	–	EC50 (Leishmania mexicana [3]): 7000 nM; EC50 (Leishmania mexicana [4]): 17000 nM
C[C@@H]1C(=O)N[C@@H](CCCNC(=N)N)C(=O)N[C@@H](Cc2ccc3ccccc3c2)C(=O)NCC(=O)N[C@H](Cc2ccc(O)cc2)C(=O)N1CCCCCCNC(=N)N (cyclo([dY][dAla(N-(6-guanidinohexyl))]R[2Nal]G))	–	IC50 [1]: 40 nM; EC50 [2]: 29000 nM
CC(C)c1ccc(C(=O)N(CC(=O)NC2CCCCC2)c2ccc(C(=O)NO)cc2)cc1	570 nM	–
Cc1cc(C)cc(C(=O)N(CC(=O)NCc2ccccc2)Cc2ccc(C(=O)NO)cc2)c1	37 nM	–
CN(C)c1ccc(C(=O)N(Cc2ccc(C(=O)NO)cc2)C(C)(C)C(=O)NC2CCCCC2)cc1	90 nM	–
CN(C)c1ccc(C(=O)N(Cc2ccc(C(=O)NO)cc2)C(C(=O)NC2CCCCC2)c2ccccc2)cc1 (stereo unspecified)	390 nM	–
CCCCN(C(C)=O)C(C(=O)NCS(=O)(=O)c1ccc(C)cc1)c1ccccc1 (stereo unspecified)	–	Activity (Leishmania amazonensis [5]): 66.83%; Activity (Leishmania amazonensis [6]): 87.87%
C[C@@H]1C(=O)N[C@@H](CCCNC(=N)N)C(=O)N[C@@H](Cc2ccc3ccccc3c2)C(=O)NCC(=O)N[C@H](Cc2ccc(O)cc2)C(=O)N1CCCCCCN (cyclo([2Nal]G[dY][X2]R))	–	IC50 [1]: 300 nM; EC50 [2]: 53000 nM
Cc1cc(C)cc(C(=O)N(CC(=O)NCc2ccc(Cl)cc2)Cc2ccc(C(=O)NO)cc2)c1	90 nM	–
Cc1ccccc1C(=O)N(CC(=O)NC(C)(C)C)Cc1ccc(C(=O)NO)cc1	110 nM	–
Cc1cc(C)cc(CNC(=O)CN(Cc2ccc(C(=O)NO)cc2)C(=O)c2cc(C)cc(C)c2)c1	70 nM	–
